Literature values as cited in patent publication US20230190748A1, “COMPOSITIONS FOR TREATMENT OF AGED DISEASES” (GERO PTE. LTD., priority 2020, published 2023).

Assays:
EGFR/ErbB1 = EGFR/ErbB1 (Homo sapiens, UniProt P00533); conditions: class symbols + to ++++ and √; legend not given
HER2/ErbB2 = HER2/ErbB2 (Homo sapiens, UniProt P04626); conditions: class symbols + to ++++ and √; legend not given
[1] = white to brownish yellow powder

Chain of EGFR/ErbB1 (P00533 25-1210): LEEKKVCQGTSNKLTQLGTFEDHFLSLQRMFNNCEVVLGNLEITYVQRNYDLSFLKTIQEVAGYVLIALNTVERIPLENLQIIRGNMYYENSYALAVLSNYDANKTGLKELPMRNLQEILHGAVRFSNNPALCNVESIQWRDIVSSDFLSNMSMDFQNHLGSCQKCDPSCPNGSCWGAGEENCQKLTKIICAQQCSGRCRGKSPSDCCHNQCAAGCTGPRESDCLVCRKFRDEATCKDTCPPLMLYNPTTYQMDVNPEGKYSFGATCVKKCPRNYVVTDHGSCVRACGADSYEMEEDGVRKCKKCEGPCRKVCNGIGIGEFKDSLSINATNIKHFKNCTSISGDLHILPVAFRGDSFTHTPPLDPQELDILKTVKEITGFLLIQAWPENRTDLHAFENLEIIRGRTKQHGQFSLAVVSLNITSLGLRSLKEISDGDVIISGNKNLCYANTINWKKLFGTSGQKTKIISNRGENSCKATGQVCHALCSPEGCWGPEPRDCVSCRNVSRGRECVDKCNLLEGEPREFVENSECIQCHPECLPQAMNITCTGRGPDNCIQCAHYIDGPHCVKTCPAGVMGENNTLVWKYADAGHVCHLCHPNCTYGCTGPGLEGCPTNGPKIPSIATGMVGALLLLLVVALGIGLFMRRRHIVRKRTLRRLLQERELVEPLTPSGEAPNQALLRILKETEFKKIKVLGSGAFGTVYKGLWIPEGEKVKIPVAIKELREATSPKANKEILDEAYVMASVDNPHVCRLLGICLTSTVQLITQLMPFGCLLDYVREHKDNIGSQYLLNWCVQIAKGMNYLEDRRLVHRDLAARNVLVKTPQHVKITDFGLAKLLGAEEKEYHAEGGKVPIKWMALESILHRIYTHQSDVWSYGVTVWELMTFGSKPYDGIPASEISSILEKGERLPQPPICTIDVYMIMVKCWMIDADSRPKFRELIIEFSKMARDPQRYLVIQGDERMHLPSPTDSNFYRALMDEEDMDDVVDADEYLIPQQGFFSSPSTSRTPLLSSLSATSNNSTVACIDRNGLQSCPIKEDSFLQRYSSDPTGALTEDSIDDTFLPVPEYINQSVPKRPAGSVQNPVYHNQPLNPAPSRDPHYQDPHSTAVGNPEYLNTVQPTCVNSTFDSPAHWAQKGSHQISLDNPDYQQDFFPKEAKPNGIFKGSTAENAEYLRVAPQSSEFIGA
Chain of HER2/ErbB2 (P04626 23-1255): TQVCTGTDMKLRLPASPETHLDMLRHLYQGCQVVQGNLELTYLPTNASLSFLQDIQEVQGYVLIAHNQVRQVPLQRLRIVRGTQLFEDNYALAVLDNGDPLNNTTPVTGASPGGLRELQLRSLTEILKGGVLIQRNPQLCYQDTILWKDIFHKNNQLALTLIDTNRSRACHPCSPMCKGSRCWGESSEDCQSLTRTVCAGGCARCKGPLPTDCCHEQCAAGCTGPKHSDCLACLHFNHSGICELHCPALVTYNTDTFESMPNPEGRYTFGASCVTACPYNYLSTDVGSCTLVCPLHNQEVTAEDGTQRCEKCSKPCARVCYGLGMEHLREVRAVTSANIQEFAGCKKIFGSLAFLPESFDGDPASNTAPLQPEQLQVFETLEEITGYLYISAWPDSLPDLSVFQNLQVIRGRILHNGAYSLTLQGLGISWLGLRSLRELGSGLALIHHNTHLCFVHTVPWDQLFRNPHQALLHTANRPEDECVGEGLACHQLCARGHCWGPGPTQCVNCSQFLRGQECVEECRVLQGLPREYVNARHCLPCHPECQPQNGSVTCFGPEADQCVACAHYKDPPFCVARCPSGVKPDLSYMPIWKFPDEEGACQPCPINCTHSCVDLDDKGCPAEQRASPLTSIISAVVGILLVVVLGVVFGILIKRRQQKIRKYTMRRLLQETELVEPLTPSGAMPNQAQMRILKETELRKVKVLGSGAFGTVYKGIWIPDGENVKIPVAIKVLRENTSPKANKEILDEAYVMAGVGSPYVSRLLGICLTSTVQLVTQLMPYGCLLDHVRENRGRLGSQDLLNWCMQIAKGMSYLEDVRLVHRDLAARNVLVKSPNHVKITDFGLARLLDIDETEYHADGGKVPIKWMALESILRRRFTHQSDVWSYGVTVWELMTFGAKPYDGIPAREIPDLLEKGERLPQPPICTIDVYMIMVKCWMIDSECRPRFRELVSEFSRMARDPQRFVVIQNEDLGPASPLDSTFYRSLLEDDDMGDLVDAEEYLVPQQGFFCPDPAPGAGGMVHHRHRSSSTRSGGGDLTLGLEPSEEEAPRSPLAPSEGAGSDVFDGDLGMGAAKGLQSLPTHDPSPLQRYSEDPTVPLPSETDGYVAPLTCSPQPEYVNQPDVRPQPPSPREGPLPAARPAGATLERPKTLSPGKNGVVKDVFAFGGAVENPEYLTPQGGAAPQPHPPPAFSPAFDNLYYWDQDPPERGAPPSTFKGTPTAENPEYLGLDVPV

Row | Structure (SMILES) | EGFR/ErbB1 (EGFR/ErbB1) | other results
1 | Cc1cc(Nc2ncnc3ccc(-c4ccc(CNCCS(C)(=O)=O)o4)cc23)ccc1Oc1ccn2ncnc2c1 [HER2-Inhibitor-1] | – | HER2/ErbB2 (HER2/ErbB2): √
2 | O=C(/C=C/c1ccc(O)c(O)c1)c1ccc(O)cc1O [Butein] | √ | –
3 | CN(C)C/C=C/C(=O)Nc1cc2c(Nc3ccc(F)c(Cl)c3)ncnc2cc1O[C@H]1CCOC1.O=C(O)/C=C\C(=O)O.O=C(O)/C=C\C(=O)O [Afatinib (BIBW2992) Dimaleate, 2-butenamide, N-[4-[(3-chloro-4-fluorophenyl)amino] 7-[[(3S)-tetrahydro-3-furanyl]oxy]-6-quinazolinyl]-4-(dimethylamino)-,(2E)-, (2Z)-2-butenedioate (1:2)] | – | solubility in water [1]: water soluble
4 | Cc1cc(O)c2c(c1)C(=O)c1cccc(O)c1C2=O [Chrysophanic Acid] | √ | –

Further lines, with some results ahead:

Row | EGFR/ErbB1 (EGFR/ErbB1) | Structure (SMILES) | other results
5 | √ | C=CC(=O)N1CC[C@@H](Oc2nc(Nc3ccc(N4CCC(N5CCN(C)CC5)CC4)cc3)c(C(N)=O)nc2CC)C1 [Naquotinib(ASP8273), Naquotinib] | –
6 | √ | C=CC(=O)Nc1cccc(Oc2nc(Nc3ccc(N4CCN(C)CC4)cc3)nc3ccsc23)c1 [Olmutinib (HM61713, BI 1482694), Olmutinib] | –
7 | √ | C=CC(=O)Nc1cccc(Sc2nc(Nc3ccc(N4CCN(C)CC4)cc3)ncc2Cl)c1 [WZ8040] | –
